According to patent US20120157396A1, “PYRAZINAMIDE FOR IMMUNOSTIMULATION AND THE TREATMENT OF LEISHMANIASES” (priority 2009, published 2012):
Several values for one entry are separate records, joined by “and”; a condition that tells them apart may be missing. Identical values can stand only once.

Columns and labels:
[1] = test system: bone marrow-derived macrophages; experiment: Cytokine and NO production in bone marrow-derived macrophages; assay type: cell-based, C57BL/6 mice; design: unit not given here; settings: macrophage, drug 100 μM
Experimental: (§1) Bone marrow cells were obtained and were grown in the presence of the cytokines M-CSF or GM-CSF to induce differentiation of macrophages or dendritic cells, respectively. The study of the immune response of dendritic cells was included because of their importance for the initiation of the immune response against L. major. […] Again, this effect was rescued by the treatment of macrophages with compounds of formula I, namely, either PZA or 5-Cl PZA.
(§2) Parasite and cell culture. L. major clone V1 (MHOM/IL/80/Friedlin) promastigotes were grown at 26° C. in medium 199 supplemented with 20% heat-inactivated fetal calf serum (FCS, Gemini, Sacramento), 100 U/ml penicillin, 100 μg/ml streptomycin, 2 mM L-glutamine, 40 mM Hepes, 0.1 mM adenine (in 50 mM Hepes) and […] hemin (in 50% triethanolamine). The macrophage murine cell line J774 (Cat. No. TIB-67TM) was cultured in DMEM (Sigma-Aldrich, St. Louis, Mo.) with 10% FCS, 100 U/ml penicillin, 100 μg/ml streptomycin and 2 mM glutamine (Sigma-Aldrich) at 37° C. under 5% CO2 atmosphere. Culture medium was changed twice per week. Subcultures were performed when monolayers covered 90% of the bottom of culture flasks. For experiments involving macrophages and dendritic cells, bone marrow was obtained from C57BL/6 mouse femurs and grown for 6-8 days in RPMI 1640 supplemented as above in the presence of 10% L929 conditioned medium (to generate macrophages) or 20 ng/ml GM-CSF (to generate dendritic cells).
(§3) J774 cells or bone marrow-derived cells were seeded onto 24-well plates at a concentration of 5×10^5 cells/ml. Twenty-four hours later, PZA was added to the wells at different concentrations in the absence or presence of L. major (1:5 parasite ratio). In some experiments, J774 cells were treated with amphotericin B (0.1, 0.5, or 1 μg/ml). Two control groups were also included in this experiment: a positive control of activation consisting in a group of uninfected cells treated with 100 ng/ml LPS and 10 IU IFN-γ as a positive control of activation, and a negative control of activation, consisting in uninfected, untreated cells. Cell cultures were maintained overnight, and then cultured for an additional 6 h with brefeldin A (10 μg/ml), harvested by scraping and fixed in 2% paraformaldehyde. Prior to staining, cells were incubated with an anti-Fc III/II receptor and 10% normal mouse serum (NMS) in PBS containing 0.1% BSA, 0.01% NaN3. Cells were permeabilized with saponin and stained for the surface markers CD80 (clone 16-10A1), CD86 (clone GL1), MHCI (clone 28-14-8), MHCII (clone M5/114.15.2) and for the cytokines IL-12p40/p70 (clone C17.8) and IL-10 (clone JESS-16E3). Incubations were carried out for 30 min on ice. All antibodies were purchased from BD Biosciences or eBioscience. For each sample, at least 50,000 cells were analyzed. The data were collected and analyzed using CELLQuest software and a FACScalibur flow cytometer (Becton Dickinson, San Jose, Calif.).

J774 cells = experiment: Cytokine (ELISA) and nitric oxide (Griess test) production in J774 cells; assay type: cell-based, murine; settings: for production of cytokines (IL-12, TNF-α) and NO release: J774 cells, irrespective of infection (FIG. 14)
Experimental: The ability of J774 cells to produce cytokines in response to infection and/or treatment was also determined. Cells were infected, treated or activated as described above. The amount of the proinflammatory cytokines IL-12 and TNF-α (implicated in Thl response and parasite killing), as well as the repressive cytokine IL-10, was determined by ELISA in the culture supernatants. The level of nitric oxide was also determined in the same supernatants. PZA treatment alone increased cytokine production, especially IL-12 and TNF-α and NO release. […] Finally, to test the specificity of the immune activation by PZA, we determined the effect that amphotericin B treatment had on activation and cytokine expression by J774 cells.
as §3

[2] = test system: bone marrow-derived dendritic cells; experiment: Cytokine and NO production in bone marrow-derived dendritic cells; assay type: cell-based, C57BL/6 mice; design: unit not given here; settings: dendritic cell, drug 100 μM
[3] = test system: bone marrow-derived dendritic cells; experiment: as above; assay type: cell-based, C57BL/6 mice; design: unit not given here; settings: dendritic cell, drug 100 μM; remark: listed apart in the source
Experimental: as §1, §2, §3

[4] = PZA-treated children, Zhu et al.; cited from earlier work
L. major promastigotes = experiment: L. major promastigote drug treatment, parasite survival after 48 h; assay type: cell-based; settings: 48 h, promastigote
Experimental: The effect of PZA was first investigated with promastigotes of L. major. PZA was diluted in medium and added to cultures. After 48 h, parasite multiplication was determined by counting parasites in culture. […] Incubation of L. major with 1 μg/ml amphotericin B (as a positive control) caused 100% mortality of promastigotes and 90% of amastigotes.
Mid-log phase (day 3 of culture) L. major promastigotes were employed. Parasite concentration was adjusted to 10^6 promastigotes/ml and seeded into 96-well plates in a volume of 100 μl (final concentration, 10^5 promastigotes/well). PZA was tested in triplicate in a concentration gradient from 1,000-0.5 μg/ml and added to the wells containing the parasite in a volume of 100 μl. A negative control was included with three wells containing only parasites and medium. The positive control consisted of amphotericin B (1 μg/ml). This concentration was previously employed by us because this concentration is equivalent to drug concentrations achieved in human plasma. After 48 h of incubation at 26° C., 10 μL of each well was diluted in 90 μL of the vital colorant (trypan blue in PBS) and the parasites were quantified in a Neubauer chamber. Data was normalized as percentage of survival compared to untreated controls. The Lethal Dose 50 (LD50) was extrapolated from the graph as the concentration of the products that inhibited the parasitic growth at 50% of the values of the negative control.

[5] = L. major-infected J774, PZA 10 μM
[6] = L. major-infected J774, PZA 100 μM

## NC(=O)c1cnc(Cl)cn1 [5-Cl PZA, 5-chloro pyrazinamide]
[1]; infected with L. major (Lm)
  IL-10 production: 499 ± 312
  IL-12 production: 1821 ± 645
[1]; uninfected
  IL-10 production: 415 ± 210
  IL-12 production: 1767 ± 526
J774 cells; IL-2 production (FIG. 9B), also in Leishmania-infected macrophages
  proinflammatory cytokines stimulated relative to PZA: 2 ×
J774 cells
  production of cytokines (IL-12, TNF-α) and NO release: increased
[2]; infected with L. major (Lm)
  NO production: 876 ± 172
  TNF-α production: 2986 ± 566
[2]; uninfected
  NO production: 745 ± 211
  TNF-α production: 17684 ± 678
[3]; infected with L. major (Lm)
  IL-10 production: 342 ± 398
  IL-12 production: 2121 ± 945
[3]; uninfected
  IL-10 production: 265 ± 213
  IL-12 production: 1962 ± 765

## NC(=O)c1cnccn1 [PZA, pyrazinamide]
[1]; infected with L. major (Lm)
  IL-10 production: 199 ± 120
  IL-12 production: 921 ± 445
[1]; uninfected
  IL-10 production: 155 ± 21
  IL-12 production: 867 ± 546
[4]
  serum concentration: 41000 ng/mL
L. major promastigotes; Leishmania major
  MIC50: 10 µM and 16.2 µg/mL
L. major promastigotes; PZA 1 μg/ml
  percentage of survival compared to untreated control: 88 ± 18%
L. major promastigotes; PZA 12.5 μg/ml
  percentage of survival compared to untreated control: 50 ± 18%
L. major promastigotes; PZA 50 μg/ml
  percentage of survival compared to untreated control: 38 ± 14%
L. major promastigotes; PZA 200 μg/ml
  percentage of survival compared to untreated control: 20 ± 10%
L. major promastigotes; PZA 1000 μg/ml
  percentage of survival compared to untreated control: 10 ± 12%
J774 cells
  production of cytokines (IL-12, TNF-α) and NO release: increased
J774 cells; [5]
  IL-10 production: 109 ± 39 pg/mL
  IL-12 production: 253 ± 68 pg/mL
  Nitric Oxide production: 289 ± 55 pg/mL
  TNF-α production: 259 ± 163 pg/mL
J774 cells; [6]
  IL-10 production: 112 ± 44 pg/mL
  IL-12 production: 299 ± 55 pg/mL
  Nitric Oxide production: 498 ± 74 pg/mL
  TNF-α production: 489 ± 154 pg/mL
J774 cells; uninfected J774, PZA 10 μM
  IL-10 production: 112 ± 45 pg/mL
  IL-12 production: 178 ± 38 pg/mL
  Nitric Oxide production: 254 ± 44 pg/mL
  TNF-α production: 245 ± 159 pg/mL
J774 cells; uninfected J774, PZA 100 μM
  IL-10 production: 145 ± 56 pg/mL
  IL-12 production: 359 ± 65 pg/mL
  Nitric Oxide production: 476 ± 52 pg/mL
  TNF-α production: 377 ± 105 pg/mL
[2]; infected with L. major (Lm)
  NO production: 699 ± 612
  TNF-α production: 1856 ± 125
[2]; uninfected
  NO production: 545 ± 221
  TNF-α production: 1654 ± 546
[3]; infected with L. major (Lm)
  IL-10 production: 203 ± 60
  IL-12 production: 1035 ± 785
[3]; uninfected
  IL-10 production: 185 ± 63
  IL-12 production: 956 ± 145
